# From patent publication US8959984B2, “Proteome-wide quantification of small molecule binding to cellular target proteins” (priority 2007, dated 2015)
# Read-outs that look alike come from different tables or passages of the source.
# Legend:
# [1] = target: SNRPE (Homo sapiens, UniProt P62304)
# [2] = target: T1, MAP3K2 (Homo sapiens, UniProt Q9Y2U5); assay: binding to immobilized V16742 (IVA1/IVA2, HeLa lysate, MS)
# T1 construct: endogenous in cells; host or cells: HeLa S3
# T1 sequence (Q9Y2U5 1-619): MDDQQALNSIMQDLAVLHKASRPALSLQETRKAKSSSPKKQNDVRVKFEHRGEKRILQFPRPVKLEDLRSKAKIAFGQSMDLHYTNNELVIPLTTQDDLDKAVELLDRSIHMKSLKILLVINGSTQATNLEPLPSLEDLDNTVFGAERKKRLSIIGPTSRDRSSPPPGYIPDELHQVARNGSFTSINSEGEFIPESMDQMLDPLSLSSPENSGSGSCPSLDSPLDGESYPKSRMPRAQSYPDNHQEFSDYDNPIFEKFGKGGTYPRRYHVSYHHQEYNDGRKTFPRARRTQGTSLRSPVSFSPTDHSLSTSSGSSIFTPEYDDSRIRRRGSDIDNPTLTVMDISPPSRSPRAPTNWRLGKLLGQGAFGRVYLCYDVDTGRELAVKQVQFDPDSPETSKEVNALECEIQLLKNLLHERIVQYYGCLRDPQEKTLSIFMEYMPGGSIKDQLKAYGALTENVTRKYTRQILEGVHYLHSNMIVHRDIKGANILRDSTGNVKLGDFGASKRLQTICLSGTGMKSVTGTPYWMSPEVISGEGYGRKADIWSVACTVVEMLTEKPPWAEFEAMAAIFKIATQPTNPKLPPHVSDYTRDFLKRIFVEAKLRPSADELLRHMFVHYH
# [3] = target: T2, DYRK1A (Homo sapiens, UniProt Q13627); assay: as above
# T2 construct: endogenous in cells; host or cells: HeLa S3
# [4] = target: T3, ADK (IPI00290279) (Homo sapiens, UniProt P55263); assay: binding to VI16742 beads (HeLa lysate, SILAC MS)
# T3 construct: endogenous in cells; host or cells: HeLa S3 cell lysate
# [5] = target: T4, MAP3K5 (Homo sapiens, UniProt Q99683); assay: binding to immobilized V16742 (IVA1/IVA2, HeLa lysate, MS)
# T4 construct: endogenous in cells; host or cells: HeLa S3
# T4 sequence (Q99683 1-1374): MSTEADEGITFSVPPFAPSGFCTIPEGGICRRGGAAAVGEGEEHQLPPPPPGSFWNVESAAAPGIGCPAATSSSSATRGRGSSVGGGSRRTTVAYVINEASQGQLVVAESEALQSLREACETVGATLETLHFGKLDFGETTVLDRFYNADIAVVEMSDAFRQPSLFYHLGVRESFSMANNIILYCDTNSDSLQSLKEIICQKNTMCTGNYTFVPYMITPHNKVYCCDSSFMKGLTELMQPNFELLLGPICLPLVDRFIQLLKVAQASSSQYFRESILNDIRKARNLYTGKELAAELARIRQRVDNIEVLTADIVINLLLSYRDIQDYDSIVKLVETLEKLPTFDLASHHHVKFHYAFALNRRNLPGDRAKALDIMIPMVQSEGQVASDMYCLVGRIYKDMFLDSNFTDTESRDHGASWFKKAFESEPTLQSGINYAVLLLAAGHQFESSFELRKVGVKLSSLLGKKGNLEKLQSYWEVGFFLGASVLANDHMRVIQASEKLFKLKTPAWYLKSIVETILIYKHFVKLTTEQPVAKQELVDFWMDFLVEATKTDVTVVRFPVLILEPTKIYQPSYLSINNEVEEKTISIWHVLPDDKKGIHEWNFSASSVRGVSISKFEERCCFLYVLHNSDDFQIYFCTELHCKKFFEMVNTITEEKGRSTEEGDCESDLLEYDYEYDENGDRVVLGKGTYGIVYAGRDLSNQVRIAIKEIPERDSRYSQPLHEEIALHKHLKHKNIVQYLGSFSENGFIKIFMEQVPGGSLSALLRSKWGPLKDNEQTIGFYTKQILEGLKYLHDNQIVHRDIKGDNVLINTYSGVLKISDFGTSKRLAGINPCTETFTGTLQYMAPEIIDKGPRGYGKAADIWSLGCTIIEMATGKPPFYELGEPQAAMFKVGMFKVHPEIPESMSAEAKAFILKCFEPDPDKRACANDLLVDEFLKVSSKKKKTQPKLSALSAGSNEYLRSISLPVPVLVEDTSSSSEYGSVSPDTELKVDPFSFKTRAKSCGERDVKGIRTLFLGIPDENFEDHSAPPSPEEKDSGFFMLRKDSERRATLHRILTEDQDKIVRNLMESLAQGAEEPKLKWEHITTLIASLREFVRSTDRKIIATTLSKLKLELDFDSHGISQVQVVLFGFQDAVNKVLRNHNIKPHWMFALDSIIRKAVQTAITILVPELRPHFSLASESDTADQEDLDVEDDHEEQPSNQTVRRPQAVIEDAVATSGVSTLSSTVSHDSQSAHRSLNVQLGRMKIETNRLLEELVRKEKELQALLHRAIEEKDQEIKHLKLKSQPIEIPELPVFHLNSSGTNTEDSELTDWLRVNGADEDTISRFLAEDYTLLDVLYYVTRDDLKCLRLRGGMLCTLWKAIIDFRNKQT
# [6] = target: T5, Isoform 1 of Nicotinamide phosphoribosyltransferase (Homo sapiens, UniProt P43490); assay: as above
# T5 construct: endogenous in cells; host or cells: HeLa S3
# [7] = average of two experiments, read-out: Kd Avg
# T3 sequence (P55263 whole entry): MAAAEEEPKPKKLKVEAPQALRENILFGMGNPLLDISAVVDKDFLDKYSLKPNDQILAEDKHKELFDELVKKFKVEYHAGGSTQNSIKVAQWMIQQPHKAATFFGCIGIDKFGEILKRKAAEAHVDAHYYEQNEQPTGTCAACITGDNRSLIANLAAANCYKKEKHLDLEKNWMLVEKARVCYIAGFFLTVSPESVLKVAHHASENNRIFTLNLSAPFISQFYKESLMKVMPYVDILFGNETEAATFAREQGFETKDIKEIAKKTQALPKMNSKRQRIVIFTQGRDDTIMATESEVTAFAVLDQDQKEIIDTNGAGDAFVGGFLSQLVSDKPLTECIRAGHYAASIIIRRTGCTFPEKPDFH
# Sequence of SNRPE (P62304 whole entry): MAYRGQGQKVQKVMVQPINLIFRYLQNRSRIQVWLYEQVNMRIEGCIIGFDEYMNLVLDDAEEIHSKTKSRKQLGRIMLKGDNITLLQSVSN
# T5 sequence (P43490 whole entry, canonical isoform): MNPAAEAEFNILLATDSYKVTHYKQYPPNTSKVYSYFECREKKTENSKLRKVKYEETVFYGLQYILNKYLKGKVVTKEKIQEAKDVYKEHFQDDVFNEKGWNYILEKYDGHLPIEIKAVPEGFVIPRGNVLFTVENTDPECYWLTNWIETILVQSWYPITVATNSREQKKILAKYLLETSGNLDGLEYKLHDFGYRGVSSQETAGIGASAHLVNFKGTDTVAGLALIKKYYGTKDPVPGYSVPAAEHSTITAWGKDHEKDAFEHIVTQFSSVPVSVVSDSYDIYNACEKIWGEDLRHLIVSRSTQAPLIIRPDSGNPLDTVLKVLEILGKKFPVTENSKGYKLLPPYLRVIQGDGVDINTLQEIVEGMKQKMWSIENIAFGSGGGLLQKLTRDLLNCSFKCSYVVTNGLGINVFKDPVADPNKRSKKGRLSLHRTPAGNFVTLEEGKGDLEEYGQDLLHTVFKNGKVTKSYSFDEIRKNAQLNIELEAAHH
smiles,measurement,setting,value
COc1cc2ncnc(Nc3ccc(F)c(Cl)c3)c2cc1OCCCN1CCOCC1 [gefitinib],rAVERAGE (10 nM/0 nM Gef.),[1],0.70
same,rAVERAGE (100 nM/0 nM Gef.),[1],1.11
same,rAVERAGE (1000 nM/0 nM Gef.),[1],0.74
same,rAVERAGE (10000 nM/0 nM Gef.),[1],0.93
CC(C)n1c(=O)ccc2cnc(Nc3ccc(OCCN)cc3)nc21 [V16742],Percent bound at various 16742 conc,"[2]; Experiment 1, 1.87 μM 16742",4.06%
same,Percent bound at various 16742 conc,"[2]; Experiment 1, 8.74 μM 16742",14.72%
same,Percent bound at various 16742 conc,"[2]; Experiment 1, 52 μM 16742",49.07%
same,Kd,"[2]; Experiment 1, read-out: Kd",53.2 µM
same,Percent bound at various 16742 conc,"[2]; Experiment 2, 1.87 μM 16742",3.52%
same,Percent bound at various 16742 conc,"[2]; Experiment 2, 8.74 μM 16742",14.47%
same,Percent bound at various 16742 conc,"[2]; Experiment 2, 52 μM 16742",48.40%
same,Kd,"[2]; Experiment 2, read-out: Kd",54.7 µM
same,Kd,[2]; [7],53.9 µM
same,Percent bound at various 16742 conc,"[3]; Experiment 1, 1.87 μM 16742",5.75%
same,Percent bound at various 16742 conc,"[3]; Experiment 1, 8.74 μM 16742",14.82%
same,Percent bound at various 16742 conc,"[3]; Experiment 1, 52 μM 16742",52.16%
same,Kd,"[3]; Experiment 1, read-out: Kd",47.8 µM
same,Percent bound at various 16742 conc,"[3]; Experiment 2, 1.87 μM 16742",1.08%
same,Percent bound at various 16742 conc,"[3]; Experiment 2, 8.74 μM 16742",3.76%
same,Percent bound at various 16742 conc,"[3]; Experiment 2, 52 μM 16742",28.11%
same,Kd,"[3]; Experiment 2, read-out: Kd",137 µM
same,Kd,[3]; [7],92.5 µM
same,r (5 h/2.5 h INC. TIME),[4]; 5 h vs 2.5 h incubation time,1.63
same,rAVERAGE (CTRL/1 INC),[4]; control beads vs first incubation,0.05
same,Ki,[4]; immobilized VI16742,94.2 µM
same,rAVERAGE (2 INC/1 INC),[4]; second vs first incubation,0.64
same,Percent bound at various 16742 conc,"[5]; Experiment 1, 1.87 μM 16742",7.42%
same,Percent bound at various 16742 conc,"[5]; Experiment 1, 8.74 μM 16742",10.05%
same,Percent bound at various 16742 conc,"[5]; Experiment 1, 52 μM 16742",56.90%
same,Kd,"[5]; Experiment 1, read-out: Kd",44.5 µM
same,Percent bound at various 16742 conc,"[5]; Experiment 2, 1.87 μM 16742",1.27%
same,Percent bound at various 16742 conc,"[5]; Experiment 2, 8.74 μM 16742",1.00%
same,Percent bound at various 16742 conc,"[5]; Experiment 2, 52 μM 16742",17.64%
same,Kd,"[5]; Experiment 2, read-out: Kd",252 µM
same,Kd,[5]; [7],148 µM
same,Percent bound at various 16742 conc,"[6]; Experiment 1, 1.87 μM 16742",2.80%
same,Percent bound at various 16742 conc,"[6]; Experiment 1, 8.74 μM 16742",2.70%
same,Percent bound at various 16742 conc,"[6]; Experiment 1, 52 μM 16742",54.03%
same,Kd,"[6]; Experiment 1, read-out: Kd",54.8 µM
same,Percent bound at various 16742 conc,"[6]; Experiment 2, 1.87 μM 16742",2.28%
same,Percent bound at various 16742 conc,"[6]; Experiment 2, 8.74 μM 16742",3.40%
same,Percent bound at various 16742 conc,"[6]; Experiment 2, 52 μM 16742",41.68%
same,Kd,"[6]; Experiment 2, read-out: Kd",80.3 µM
same,Kd,[6]; [7],67.5 µM
